Experimental findings from publication PMC12311952, “Mechanism of SC targeting RhoA regulation and its potential value in gastric cancer therapy” (Biochemistry and Biophysics Reports, 2025) are described below.

pKd: −log10 of the molar value.

In the experiment the target is RhoA (Homo sapiens, UniProt P61586). The experiment in a line: SPR (Biacore T200, RhoA immobilized on CM5 chip, […] Langmuir fit). The experiment is classed as binding. In general terms: Surface plasmon resonance follows binding to a sensor surface in real time, without labels.
Sequence of RhoA (P61586 1-190): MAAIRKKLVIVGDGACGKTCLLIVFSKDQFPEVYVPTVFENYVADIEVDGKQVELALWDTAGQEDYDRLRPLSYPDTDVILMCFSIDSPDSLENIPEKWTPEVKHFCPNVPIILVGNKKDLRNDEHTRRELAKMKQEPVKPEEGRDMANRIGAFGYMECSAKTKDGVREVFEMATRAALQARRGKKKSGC

On to `O=C(/C=C/CCc1ccc(O)c(O)c1)CCCCc1ccc(O)c(O)c1` [compound 5, (E)-1,9-bis(3,4-dihydroxyphenyl)non-3-en-5-one], for which the pKd (commonly the Kd on a negative log10 scale, so that one unit is a factor of ten) was 5.80.
